The NIST ThermoML archive (doi:10.1021/je700260f)

Conditions: 313.15 K, Liquid, Vibrating tube method

FC(C(F)(F)F)C(F)(F)F [1,1,1,2,3,3,3-heptafluoropropane]
Conditions | mass density [kg/m3]
6459 kPa | 1373.4
6490 kPa | 1373.6
6518 kPa | 1373.8
6545 kPa | 1374
6574 kPa | 1374.3
6602 kPa | 1374.5
6638 kPa | 1374.7
6666 kPa | 1374.8
6694 kPa | 1375.2
6718 kPa | 1375.4
6751 kPa | 1375.5
6776 kPa | 1375.7
6806 kPa | 1376
6835 kPa | 1376
6863 kPa | 1376.4
6883 kPa | 1376.7
6908 kPa | 1376.8
6938 kPa | 1376.9
6976 kPa | 1377.1
7006 kPa | 1377.4
7045 kPa | 1377.7
7079 kPa | 1377.9
7109 kPa | 1378.2
7139 kPa | 1378.3
7169 kPa | 1378.7
7198 kPa | 1378.8
7228 kPa | 1379
7266 kPa | 1379.4
7292 kPa | 1379.5
7326 kPa | 1379.7
7348 kPa | 1379.9
7382 kPa | 1380.1
7408 kPa | 1380.3
7438 kPa | 1380.5
7465 kPa | 1380.7
7501 kPa | 1380.9
7527 kPa | 1381.2
7556 kPa | 1381.4
7582 kPa | 1381.6
7612 kPa | 1381.8
7638 kPa | 1382.1
7677 kPa | 1382.3
7703 kPa | 1382.3
7742 kPa | 1382.8
7768 kPa | 1382.8
7798 kPa | 1383
7824 kPa | 1383.2
7851 kPa | 1383.5
7874 kPa | 1383.6
7910 kPa | 1383.8
7931 kPa | 1383.9
7958 kPa | 1384.2
7993 kPa | 1384.3
8020 kPa | 1384.6
8059 kPa | 1384.9
8094 kPa | 1385
8129 kPa | 1385.4
8156 kPa | 1385.5
8196 kPa | 1385.9
8223 kPa | 1386
8263 kPa | 1386.4
8295 kPa | 1386.4
8331 kPa | 1386.7
8367 kPa | 1387
8399 kPa | 1387.1
8430 kPa | 1387.3
8461 kPa | 1387.6
8497 kPa | 1387.9
8523 kPa | 1388.2
8564 kPa | 1388.3
8622 kPa | 1388.8
8654 kPa | 1388.8
8689 kPa | 1389.1
8720 kPa | 1389.4
8766 kPa | 1389.7
8798 kPa | 1390
8834 kPa | 1390.1
8861 kPa | 1390.3
8887 kPa | 1390.6
8915 kPa | 1390.6
8943 kPa | 1390.9
8979 kPa | 1391.1
9019 kPa | 1391.5
9044 kPa | 1391.5
9072 kPa | 1391.7
9097 kPa | 1391.9
9130 kPa | 1392.1
9160 kPa | 1392.2
9179 kPa | 1392.3
9214 kPa | 1392.6
9236 kPa | 1392.7
9263 kPa | 1393
9286 kPa | 1393.1
9320 kPa | 1393.4
9340 kPa | 1393.4
9367 kPa | 1393.6
9393 kPa | 1393.8
9419 kPa | 1394
9443 kPa | 1394
9465 kPa | 1394.3
9495 kPa | 1394.3
9518 kPa | 1394.6
9544 kPa | 1394.8
9564 kPa | 1394.9
9591 kPa | 1395
9619 kPa | 1395.3
9823 kPa | 1396.6
9856 kPa | 1396.8
9892 kPa | 1397
9921 kPa | 1397.3
9953 kPa | 1397.4
9987 kPa | 1397.4
10010 kPa | 1397.7
10062 kPa | 1398.1
10094 kPa | 1398.2
10123 kPa | 1398.4
10151 kPa | 1398.5
10183 kPa | 1398.9
10211 kPa | 1399.1
10247 kPa | 1399.1
10272 kPa | 1399.3
10301 kPa | 1399.5
10332 kPa | 1399.8
10361 kPa | 1400
10389 kPa | 1400
10421 kPa | 1400.3
10450 kPa | 1400.4
10482 kPa | 1400.8
10519 kPa | 1401
10547 kPa | 1401.1
10580 kPa | 1401.3
10609 kPa | 1401.5
10646 kPa | 1401.7
10680 kPa | 1401.9
10709 kPa | 1402.1
10743 kPa | 1402.3
10780 kPa | 1402.5
10813 kPa | 1402.7
10838 kPa | 1402.9
10871 kPa | 1403.1
10899 kPa | 1403.2
10928 kPa | 1403.5
10956 kPa | 1403.5
10981 kPa | 1403.7
11015 kPa | 1404.1
11048 kPa | 1404.2
11069 kPa | 1404.4
11102 kPa | 1404.4
11127 kPa | 1404.6
11164 kPa | 1404.9
11193 kPa | 1405
11222 kPa | 1405.3
11252 kPa | 1405.4
11278 kPa | 1405.5
11317 kPa | 1405.7
11360 kPa | 1405.9
11399 kPa | 1406.3
11424 kPa | 1406.4
11461 kPa | 1406.5
11486 kPa | 1406.8
11518 kPa | 1406.9
11544 kPa | 1407.2
11578 kPa | 1407.4
11628 kPa | 1407.6
11692 kPa | 1408
11726 kPa | 1408.2
11751 kPa | 1408.3
11788 kPa | 1408.5
11818 kPa | 1408.8
11860 kPa | 1408.9
11889 kPa | 1409.2
11927 kPa | 1409.3
11969 kPa | 1409.5
11998 kPa | 1409.7
12023 kPa | 1409.9
12048 kPa | 1410.1
12069 kPa | 1410.1
12099 kPa | 1410.3
12128 kPa | 1410.6
12165 kPa | 1410.9
12206 kPa | 1410.9
12231 kPa | 1411.1
12265 kPa | 1411.4
12294 kPa | 1411.4
12323 kPa | 1411.6
12344 kPa | 1411.8
12373 kPa | 1411.9
12407 kPa | 1412.1
12448 kPa | 1412.4
12477 kPa | 1412.4
12510 kPa | 1412.8
12532 kPa | 1412.9
12565 kPa | 1413.1
12616 kPa | 1413.4
12650 kPa | 1413.4
12689 kPa | 1413.8
12723 kPa | 1413.9
12749 kPa | 1414.1
12786 kPa | 1414.2
12813 kPa | 1414.5
12852 kPa | 1414.7
12888 kPa | 1414.9
12924 kPa | 1415.1
12959 kPa | 1415.3
12986 kPa | 1415.4
